In patent US20080064668A1, “1,3-Diacylated, 26,27-Alkyl/Haloakyl Vitamin D3 Compounds and Methods of Use Thereof” (BioXell S.p.A., priority 2003, published 2008):

What was measured:
HT 1376 = assay: Proliferation assay using bladder cancer cell lines, HT1376; type: cell-based, human; settings: Homo sapiens, HT-1376; 72 h culture, CyQuant proliferation assay
Description: (§1) Bladder cancer cell lines (T24, RT112, HT1376 and RT4 are human bladder cancer cell lines; NHEK are normal human keratinocytes) were obtained from the European Collection of Cell Cultures (Salisbury, UK). Cells were plated at 3×10^3 per well, in flat bottomed 96-well plates in 100 μl of DMEM medium containing: 5% Fetal Clone I, 50 μg/l gentamicin, 1 mM sodium pyruvate and 1% non-essential amino acids. After culturing for 24 h at 37° C. in 5% CO2, to allow cells to adhere to the plates, VDR ligands (compounds (2), (4), (5) and other vitamin D3 analogs as shown in Table 4) were added at concentrations ranging from 100 μM to 0.3 μM in 100 μl of above-mentioned complete medium. After a further 72 h of culture, cell proliferation was measured using a fluorescence-based proliferation assay kit. (CyQuant Cell Proliferation Assay Kit, Molecular Probes, Eugene, Oreg., USA). The IC50 was calculated from the regression curve of the titration data.

[1] = MTD in CD1 mouse (highest non-hypercalcemic dose); settings: in vivo
IFN-γ production = IFN-γ production in the mixed leukocyte response (MLR); type: cell-based; settings: 120 h; allogeneic PBMC from 2 donors, 5 days, ELISA; read-out: INF-γ IC50
Description: Immature dendritic cells (DC) were prepared as described in Romani, N. et al. (Romani, N. et al. (1996) J. Immunol. Meth. 196:137). IFN-γ production by allogeneic T cell activation in the mixed leukocyte response (MLR) was determined as described in Penna, G., et al., J Immunol., 164: 2405-2411 (2000).
Briefly, peripheral blood mononuclear cells (PBMC) were separated from buffy coats by Ficoll gradient and the same number (3×10^5) of allogeneic PBMC from 2 different donors were co-cultured in 96-well flat-bottom plates. The vitamin D3 compounds were added to each of the cultures.

RT112 = assay: Proliferation assay using bladder cancer cell lines, RT112; type: cell-based, human; settings: Homo sapiens, 72 h culture, CyQuant proliferation assay
Description: as §1

RT4 = assay: Proliferation assay using bladder cancer cell lines, RT4; type: cell-based, human; settings: Homo sapiens, 72 h culture, CyQuant proliferation assay
Description: as §1

NHEK = assay: Proliferation assay, NHEK normal human keratinocytes; type: cell-based; settings: Homo sapiens, NHEK; 72 h culture, CyQuant proliferation assay
Description: as §1

[2] = Determination of Maximum Tolerated Dose (MTD); settings: female, C57BL/6, mouse, in vivo, po
Description: The maximum tolerated dose of the vitamin D3 compounds of the invention were determined in eight week-old female C57BL/6 mice (3 mice/group) dosed orally (0.1 ml/mouse) with various concentrations of Vitamin D3 analogs daily for four days. Analogs were formulated in miglyol for a final concentration of 0.01, 0.03, 0.1 0.3, 1, 3, 10, 30, 100 and 300 μg/kg when given at 0.1 ml/mouse p.o. daily. Blood for serum calcium assay was drawn by tail bleed on day five, the final day of the study.

Human BPH cells = assay: BPH cell proliferation assay (testosterone-induced); type: cell-based; settings: 48 h
Description: Human BPH cells, prepared, maintained and used as previously described in Crescioli C, et al. Journal of Clinical and Endocrinology Metabolism (2000) 85 p 2576-2583, were obtained from prostate tissues derived from 5 patients, who underwent suprapubic adenomectomy for BPH, after informed consent and approval by the Local Ethical Committee.
For all cell proliferation assays, 4×10^4 BPH cells were seeded onto 12-well plates in their growth medium, starved in red- and serum-free medium containing 0.1% BSA for 24 h, and then treated with specific stimuli for 48 h. Cells in phenol red- and serum-free medium containing 0.1% BSA were used as controls. Thereafter, cells were trypsinized, and each experimental point was derived from hemocytometer counting, averaging at least six different fields for each well, as previously reported (see Crescioli C, et al. Journal of Clinical and Endocrinology Metabolism (2000) 85 p 2576-2583).
Growth assays were also carried out using a fixed concentration of androgens (10 nM) with or without vitamin-D analogs (1 nM, 10 nM) or the anti-androgens finasteride (F, 1 nM) and cyproterone acetate (Cyp, 100 nM. Growth assays were also performed using a fixed concentration of T (10 nM) or GFs (10 ng/ml) with or without the vitamin-D analogs. (10 nM).
In the same experiment, each experimental point was repeated in triplicate or quadruplicate and experiments were performed 3 times. Results are expressed as % variation (mean±SEM) over the maximal T or GF-induced stimulation.

[3] = test system: human stromal bladder cells; assay: Inhibition of basal human bladder cell growth; type: cell-based
Excerpt: The Inventors confirmed the presence of vitamin D receptors (VDRs), as previously reported in the literature, on these cells (see below in FIG. 3).
(§2) The maximum tolerated dose (MTD) in rats is also listed for each compound (Table 7).

ECV = assay: Proliferation assay using bladder cancer cell lines, ECV; type: cell-based, human; settings: Homo sapiens; 72 h culture, CyQuant proliferation assay
[4] = Maximum tolerated dose (MTD) in rats (Table 7); settings: rat, in vivo
Excerpt: as §2

SMILES	IC50 (HT 1376) [µM]	MTD [1] [mg/kg]	IC50 (IFN-γ production) [nM]	IC50 (RT112; RT-112) [µM]	IC50 (RT4; RT-4) [µM]	IC50 (NHEK) [µM]	MTD at 4 days [2] [mg/kg]	IC50 (Human BPH cells) [µM]	inhibiting the basal growth of bladder cells ([3]; human stromal bladder cells in culture)	IC50 (ECV) [µM]	IC50 (RT112; RT-112, 72 h) [µM]	IC50 (RT4; RT-4, 72 h) [µM]	MTD [4] [mg/kg]	IC50 ([3]; Homo sapiens) [µM]
C=C1/C(=C\C=C2/CCC[C@]3(C)[C@@H]([C@H](C)CCCC(C)(C)O)CC[C@@H]23)C[C@@H](O)C[C@@H]1O [Calcitriol, 1,25-dihydroxycholecalciferol, reference compound]	50	0.001	0.022	19	45	4.9	0.001	0.0851	effective	–	–	–	–	–
CC(=O)OC1C/C(=C/C=C2\CCC[C@@]3(C)C2CCC3C2(CC#CC(OC(C)=O)(C(F)(F)F)C(F)(F)F)CC2)C[C@@H](OC(C)=O)C1 (stereo partly drawn) [(26), 1,3,25-Tri-O-acetyl-1,25-dihydroxy-20-cyclopropyl-23-yne-26,27-hexafluoro-19-nor-cholecalciferol]	> 100	0.01	0.922	–	–	32.8	0.01	> 100000	–	63.5	15	5	–	–
C=C1/C(=C\C=C2/CCC[C@]3(C)C(C(C)CC#CC(C)(C)O)=CCC23)CC(OC(C)=O)C[C@@H]1OC(C)=O (stereo partly drawn) [(7), 1,3-Di-O-acetyl-1,25-dihydroxy-16-ene-23-yne-cholecalciferol]	> 100	0.01	0.051	–	–	4.8	0.01	42.7	–	27.7	3	80	–	–
C=C1/C(=C\C=C2/CCC[C@@]3(C)C2CCC3C2(CC#CC(C)(C)O)CC2)CC(OC(C)=O)C[C@@H]1OC(C)=O (stereo partly drawn) [(29), 1,3-Di-O-acetyl-1,25-dihydroxy-20-cyclopropyl-23-yne-cholecalciferol]	80	0.03	0.0078	–	–	5.9	0.03	0.00316	–	49.6	8	13	0.03	< 10000
C=C1/C(=C\C=C2/CCC[C@]3(C)C(C(C)CC#CC(O)(C(F)(F)F)C(F)(F)F)=CCC23)CC(OC(C)=O)C[C@@H]1OC(C)=O (stereo partly drawn) [(14), 1,3-Di-O-acetyl-1,25-dihydroxy-16-ene-23-yne-26,27-hexafluoro-cholecalciferol]	> 100	0.01	0.0273	–	–	0.98	0.01	501	–	> 100	26	19	–	–
C=C1/C(=C\C=C2/CCC[C@@]3(C)C2CCC3C(C)CC#CC(C)(C)O)CC(OC(C)=O)C[C@@H]1OC(C)=O (stereo partly drawn) [(41), 1,3-Di-O-acetyl-1,25-dihydroxy-23-yne-cholecalciferol]	> 100	0.001	0.08	–	–	4.2	0.001	0.000724	–	40	8	85	–	–
CC(=O)OC1C/C(=C/C=C2\CCC[C@@]3(C)C2CCC3C2(CC#CC(O)(C(F)(F)F)C(F)(F)F)CC2)C[C@@H](OC(C)=O)C1 (stereo partly drawn) [(27), 1,3-Di-O-acetyl-1,25-dihydroxy-20-cyclopropyl-23-yne-26,27-hexafluoro-19-nor-cholecalciferol]	43	0.01	0.078	–	–	2.6	0.01	0.000794	–	25.5	–	–	–	–
